In brackets after ≈: the same amount, converted by molar mass.
How the values were obtained:
M. tuberculosis M3551 = details: clinical multidrug-resistant isolate; for MIC M. tuberculosis M3551: Alamar blue, 7H9 broth, triplicate wells
M. tuberculosis M9483 = details: clinical multidrug-resistant isolate; for MIC M. tuberculosis M9483: Alamar blue, 7H9 broth, triplicate wells
M. tuberculosis M6600 = details: clinical multidrug-resistant isolate; for MIC M. tuberculosis M6600: Alamar blue, 7H9 broth, triplicate wells

SMILES | M. tuberculosis M3551, resistant/sensitive class of control drugs (M. tuberculosis M3551) | M. tuberculosis M9483, resistant/sensitive class of control drugs (M. tuberculosis M9483) | M. tuberculosis M6600, resistant/sensitive class of control drugs (M. tuberculosis M6600) | MIC M. tuberculosis M3551 (M. tuberculosis M3551) | MIC M. tuberculosis M9483 (M. tuberculosis M9483) | MIC M. tuberculosis M6600 (M. tuberculosis M6600)
NNC(=O)c1ccncc1 [INH, isoniazid] | R | R | R |  |  | 
CC(=O)NC[C@H]1CN(c2ccc(N3CCOCC3)c(F)c2)C(=O)O1 [LZD, linezolid] | S (sensitive to LZD, at 2.0 μg/mL) | S (sensitive to LZD, at 2.0 μg/mL) | S (sensitive to LZD, at 2.0 μg/mL) |  |  | 
CO[C@H]1/C=C/O[C@@]2(C)Oc3c(C)c(O)c4c(O)c(c(/C=N/N5CCN(C)CC5)c(O)c4c3C2=O)NC(=O)/C(C)=C\C=C\[C@H](C)[C@H](O)[C@@H](C)[C@@H](O)[C@@H](C)[C@H](OC(C)=O)[C@@H]1C [RIF, rifampicin] | R | R | R |  |  | 
CSCC[C@H](NC(=O)N[C@@H](Cc1c[nH]c2ccccc12)C(=O)O)C(=O)N[C@H](C(=O)N/C=C1/C[C@@H](O)[C@H](n2ccc(=O)[nH]c2=O)O1)[C@H](C)N(C)C(=O)[C@@H](N)Cc1cccc(O)c1 [SS-A, sansanmycin A] |  |  |  | 16 µg/mL (≈ 18.5 µM) | 16 µg/mL (≈ 18.5 µM) | 16 µg/mL (≈ 18.5 µM)
CSCC[C@H](NC(=O)N[C@@H](Cc1c[nH]c2ccccc12)C(=O)O)C(=O)N[C@H](C(=O)NC[C@H]1O[C@@H](n2ccc(=O)[nH]c2=O)C[C@@H]1O)[C@H](C)N(C)C(=O)[C@@H](N)Cc1cccc(O)c1 [SS-KK-1] |  |  |  | >64 µg/mL | >64 µg/mL | >64 µg/mL
CSCC[C@H](NC(=O)N[C@@H](Cc1c[nH]c2ccccc12)C(=O)O)C(=O)N[C@H](C(=O)NC[C@H]1O[C@@H](n2ccc(=O)[nH]c2=O)C[C@@H]1O)[C@H](C)N(C)C(=O)[C@@H](N)Cc1ccc(O)cc1 [SS-KK-2] |  |  |  | 64 µg/mL (≈ 73.9 µM) | 32 µg/mL (≈ 37 µM) | 64 µg/mL (≈ 73.9 µM)

— paper PMC10643210, “Expanding structural diversity of 5′-aminouridine moiety of sansanmycin via mutational biosynthesis” (Frontiers in Bioengineering and Biotechnology, 2023)
